For series [1] the following is noted: compared with FDA approved camptothecin analogs (e.g., Camptosar and Hycamtin); cited from earlier work.
Series [2] in a line: Lactone/carboxylate form and lactone half-life in plasma. Type of series: in vitro ADME, rat.
Series [3] in a line: Lactone/carboxylate equilibrium in aqueous solution at physiological pH. It is filed as physicochemical. To be noted: physiological pH (7.4).

For `CC[C@@]1(O)C(=O)OCc2c1cc1n(c2=O)Cc2c-1nc1ccc(O)cc1c2[Si](C)(C)C(C)(C)C` [DB-67, 7-t-butyldimethylsilyl-10-hydroxycamptothecin], in series [1], the “Potency in in vitro cytotoxicity assays” value is recorded as “at least comparable potency”.

The half-life is how long it takes for the measured level to halve. A low value points to fast loss. Take `CC[C@@]1(O)C(=O)OCc2c1cc1n(c2=O)Cc2cc3ccccc3nc2-1` [camptothecin]: the “Fraction in lactone (active) form” value in series [2] (in plasma) was about 30%. The compound further had a half-life in series [2] (rat plasma) of about 40 min. The “Fraction in the carboxylate form” value in series [3] is recorded as “approximately 70%”.
